Data reported in patent publication US8232269B2, “Amide compounds useful in therapy” (Pfizer Inc., priority 2008, dated 2012).
pKi: −log10 of the molar value.

These compounds were tested against T1, Progesterone Receptor (PR) (Homo sapiens, UniProt P06401) (assay: In vitro functional assay for progesterone receptor (PR) antagonists: inhibition of progesterone-induced alkaline phosphatase expression in T47D cells). Conditions: antagonist format, 5 nM progesterone, Ki calculated from IC50 with the Cheng-Prusoff equation.
T1 construct: endogenous in cells; host or cells: T47D human breast mammary carcinoma cells
T1 sequence (P06401 1-933): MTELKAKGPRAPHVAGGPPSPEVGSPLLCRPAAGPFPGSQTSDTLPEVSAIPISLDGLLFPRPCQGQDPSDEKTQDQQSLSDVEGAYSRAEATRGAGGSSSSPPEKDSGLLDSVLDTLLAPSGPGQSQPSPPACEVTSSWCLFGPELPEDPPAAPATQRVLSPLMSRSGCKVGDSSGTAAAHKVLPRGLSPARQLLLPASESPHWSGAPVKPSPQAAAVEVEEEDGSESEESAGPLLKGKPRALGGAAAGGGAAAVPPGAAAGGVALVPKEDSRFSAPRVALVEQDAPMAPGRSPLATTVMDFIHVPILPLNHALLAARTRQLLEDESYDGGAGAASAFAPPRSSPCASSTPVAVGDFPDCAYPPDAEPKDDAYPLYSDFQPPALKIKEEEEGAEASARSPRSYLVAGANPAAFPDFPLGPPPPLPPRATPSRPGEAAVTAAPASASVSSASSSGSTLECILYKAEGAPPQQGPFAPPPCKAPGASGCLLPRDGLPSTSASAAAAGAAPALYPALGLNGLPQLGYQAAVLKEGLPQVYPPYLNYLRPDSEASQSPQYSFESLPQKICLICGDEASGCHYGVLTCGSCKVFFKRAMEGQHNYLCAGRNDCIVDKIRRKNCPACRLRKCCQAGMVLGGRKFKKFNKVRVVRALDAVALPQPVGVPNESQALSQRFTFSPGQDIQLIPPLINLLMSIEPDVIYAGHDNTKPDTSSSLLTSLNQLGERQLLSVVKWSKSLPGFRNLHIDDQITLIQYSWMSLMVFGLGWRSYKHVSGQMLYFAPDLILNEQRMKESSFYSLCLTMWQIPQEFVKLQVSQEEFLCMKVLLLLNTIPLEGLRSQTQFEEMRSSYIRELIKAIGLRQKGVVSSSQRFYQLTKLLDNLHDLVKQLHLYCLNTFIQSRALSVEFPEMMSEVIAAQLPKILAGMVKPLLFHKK
Type: cell-based
Excerpt: 1.0 In vitro Functional Assay for Progesterone Receptor (PR) Antagonists, Agonists and Modulators
The assay for PR antagonism takes advantage of the extensively reported modulation of alkaline phosphatase (AP) expression in human breast T47D mammary carcinoma cells {Beck et al., D. P. (1993). The progesterone antagonist RU486 acquires agonist activity upon stimulation of cAMP signalling pathways. Proc Natl Acad Sci USA 90, 4441-4445; Fensome et al. (2002). New progesterone receptor antagonists: 3,3-disubstituted-5-aryloxindoles. Bioorg Med Chem Lett 12, 3487-3490; Zhang et al., (2002a). 6-Aryl-1,4-dihydro-benzo d1,3oxazin-2-ones: a novel class of potent, selective, and orally active nonsteroidal progesterone receptor antagonists. Journal of Medicinal Chemistry 45, 4379-4382; Zhang et al., (2003). Novel 6-aryl-1,4-dihydrobenzo d oxazine-2-thiones as potent, selective, and orally active nonsteroidal progesterone receptor agonists. Bioorganic & Medicinal Chemistry Letters 13, 1313-1316; Zhang et al., (2002b). Potent nonsteroidal progesterone receptor agonists: synthesis and SAR study of 6-aryl benzoxazines. Bioorganic & Medicinal Chemistry Letters 12, 787-790; Zhang, Z. et al., (2000). In vitro characterization of trimegestone: a new potent and selective progestin. Steroids 65, 637-643}. […] In the absence of progesterone any agonist activity is also observed as an induction of AP activity. By running the assay in two formats (+/−progesterone (P4)), compounds behaving as PR antagonists, agonists, partial agonists or modulators with mixed agonist/antagonist activity can be identified.
Briefly, T47D cells are grown by propagating in DMEM with phenol red+10% FCS+2 mM Glutamine at 37° C./5% CO2. At 70-80% confluence, the media is exchanged for phenol red free DMEM+5% CS-FCS (Assay media). Cells are incubated overnight in assay media then harvested and frozen in assay media containing 10% DMSO at 1.5e7 cells/mL in 2 mL aliquots using a Planer and immediately stored in liquid nitrogen. Vials are removed from liquid nitrogen storage and immediately thawed in a water bath at 37° C. The cell suspension is added dropwise to 20 mL of assay media, then the tube centrifuged at 1000 rpm for 4 minutes, the supernatant is discarded and the pellet re-suspended in 20 mL assay media. T47D cells are then plated at 8750 cells/well in 35 μL assay media in sufficient white solid 384 well TC plates for the assay. For the agonist format assay a further 10 μL of assay media is added to each well. These plates are then cultured for 3-6 hours at 37° C./5% CO2 before compound addition.
Test substances are prepared by in 100% DMSO, half log concentrations from 4 mM in 384 well plates 5 μL/well (referred to here as ‘grandmother plates’). Progesterone is 100 μM made up in ethanol and PBS (i.e. add 1 mL ethanol to progesterone initially to help dissolving) and stored in 0.5-1 mL aliquots at −20° C.
Using a multidrop (Thermolabsystems), 60 μL/well of buffer is added to a 384 well plate—this will be the ‘mother plate’. _Add 45 μL well buffer to grandmother plate using the multidrop (=400 μM 10% DMSO dilution). Mixed and spun to remove air bubbles. • 20 μL is taken from the grandmother plate (400 μM 10% DMSO) and added to the mother plate (=100 μM 2.5% DMSO). Mixed and spun to remove air bubbles Preparation of Max/Min:
Antagonist Min: (Checker Pattern on Plate Map) 1 μM RU-486 (FAC 0.1 μM) • 50 μL of 0.2 mM RU-486 • 10 mL Diluent Addition of Test Substance to Cell Plates • The PlateMate Plus was used to add 5 μL MAX/MIN to cell plates • Then 5 μL test substances are added from the mother plate (after removing max/min PlateMate tips: columns 1 and 24)
Addition of Agonist (5 nM Progesterone FAC) for Antagonist Format Only
25 nM progesterone in assay media is prepared from 100 μM stock (12.5 μL progesterone/50 mL media), from which 10 μL per well is transferred to the assay plate using the PlateMate Plus (already containing cells & compound). […]

Question: How did the pKi turn out when `Cc1c(-c2ccc(C#N)cc2)nn(C2CCOC2)c1C(=O)NC[C@H](C)O` (mixture of isomers) [Example 78, 3-(4-Cyanophenyl)-N-[(2S)-2-hydroxypropyl]-4-methyl-1-(tetrahydrofuran-3-yl)-1H-pyrazole-5-carboxamide] was run?
Answer: 7.15

Question: How did the pKi turn out when `CCc1c(-c2ccc(C#N)cc2)nn(C(C)CC)c1C(=O)NC[C@@H](C)O` (mixture of isomers) [Example 107, 1-sec-Butyl-3-(4-cyanophenyl)-4-ethyl-N-[(2R)-2-hydroxypropyl]-1H-pyrazole-5-carboxamide] was run?
Answer: 7.20

Question: How did the pKi turn out when `CC(C)n1nc(-c2ccc(C#N)cc2)c(C2CC2)c1C(=O)NCC1CCCO1` (racemic) [Example 36, (+/−)-3-(4-Cyanophenyl)-4-cyclopropyl-1-isopropyl-N-(tetrahydrofuran-2-ylmethyl)-1H-pyrazole-5-carboxamide] was run?
Answer: 7.92

Question: How did the pKi turn out when `CC(NC(=O)c1c(C2CC2)c(-c2ccc(C#N)cc2)nn1C(C)C)c1cnn(C)c1` (racemic) [Example 39] was run?
Answer: 7.75

Question: With `CC(C)n1nc(-c2ccc(C#N)cc2)c(C2CC2)c1C(=O)NC1CCCOC1` (racemic) [Example 40, (+/−)-3-(4-Cyanophenyl)-4-cyclopropyl-1-isopropyl-N-(tetrahydro-2H-pyran-3-yl)-1H-pyrazole-5-carboxamide] as the compound, how does the pKi read?
Answer: 7.76

Question: How did the pKi turn out when `CC(C)n1nc(-c2ccc(C#N)cc2)c(C2CC2)c1C(=O)NC1CCC(=O)N(C)C1` (racemic) [Example 41, (+/−)-3-(4-Cyanophenyl)-4-cyclopropyl-1-isopropyl-N-(1-methyl-6-oxopiperidin-3-yl)-1H-pyrazole-5-carboxamide] was run?
Answer: 7.60

Question: `CC(Cn1cccn1)NC(=O)c1c(C2CC2)c(-c2ccc(C#N)cc2)nn1C(C)C` (racemic) [Example 44, (+/−)-3-(4-Cyanophenyl)-4-cyclopropyl-1-isopropyl-N-[1-methyl-2-(1H-pyrazol-1-yl)ethyl]-1H-pyrazole-5-carboxamide] was tested. Which pKi did it give?
Answer: 7.39

Question: How did the pKi turn out when `CC(C)n1nc(-c2ccc(C#N)cc2)c(C2CC2)c1C(=O)NC1CNC(=O)C1` (racemic) [Example 45, (+/−)-3-(4-Cyanophenyl)-4-cyclopropyl-1-isopropyl-N-[(3R)-5-oxopyrrolidin-3-yl]-1H-pyrazole-5-carboxamide] was run?
Answer: 6.98

Question: How did the pKi turn out when `CC(C)n1nc(-c2ccc(C#N)cc2)c(C2CC2)c1C(=O)NC1CCS(=O)(=O)C1` (racemic) [Example 57, (+/−)-3-(4-Cyanophenyl)-4-cyclopropyl-N-(1,1-dioxidotetrahydro-3-thienyl)-1-isopropyl-1H-pyrazole-5-carboxamide] was run?
Answer: 8.13

Question: `CCNC(=O)c1c(C)c(-c2ccc(C#N)cc2)nn1C1CCOC1` (racemic) [Example 76, 3-(4-Cyanophenyl)-N-ethyl-4-methyl-1-(tetrahydrofuran-3-yl)-1H-pyrazole-5-carboxamide] was tested. Which pKi did it give?
Answer: 7.57

Question: How did the pKi turn out when `Cc1c(-c2ccc(C#N)cc2)nn(C2CCOC2)c1C(=O)NC(C)C` (racemic) [Example 77, 3-(4-Cyanophenyl)-N-isopropyl-4-methyl-1-(tetrahydrofuran-3-yl)-1H-pyrazole-5-carboxamide] was run?
Answer: 7.55

Question: How did the pKi turn out when `Cc1c(-c2ccc(C#N)cc2)nn(C2CCOC2)c1C(=O)NCC(C)(C)O` (racemic) [Example 80, 3-(4-Cyanophenyl)-N-(2-hydroxy-2-methylpropyl)-4-methyl-1-(tetrahydrofuran-3-yl)-1H-pyrazole-5-carboxamide] was run?
Answer: 6.86

Question: How did the pKi turn out when `CCc1c(-c2ccc(C#N)cc2)nn(C(C)CC)c1C(=O)NCC1CC1` (racemic) [Example 101, (+/−)-1-sec-Butyl-3-(4-cyanophenyl)-N-(cyclopropylmethyl)-4-ethyl-1H-pyrazole-5-carboxamide] was run?
Answer: 8.12

Question: How did the pKi turn out when `CCc1c(-c2ccc(C#N)cc2)nn(C(C)CC)c1C(=O)NC(C)C` (racemic) [Example 102, (+/−)-1-sec-Butyl-3-(4-cyanophenyl)-4-ethyl-N-isopropyl-1H-pyrazole-5-carboxamide] was run?
Answer: 7.83

Question: `CCNC(=O)c1c(CC)c(-c2ccc(C#N)cc2)nn1C(C)CC` (racemic) [Example 103, (+/−)-1-sec-Butyl-3-(4-cyanophenyl)-N,4-diethyl-1H-pyrazole-5-carboxamide] was tested. Which pKi did it give?
Answer: 7.90

Question: With `CCc1c(-c2ccc(C#N)cc2)nn(C(C)CC)c1C(=O)NC1CC1` (racemic) [Example 104, (+/−)-1-sec-Butyl-3-(4-cyanophenyl)-N-cyclopropyl-4-ethyl-1H-pyrazole-5-carboxamide] as the compound, how does the pKi read?
Answer: 7.75

Question: With `CCc1c(-c2ccc(C#N)cc2)nn(C(C)CC)c1C(=O)NC` (racemic) [Example 105, (+/−)-1-sec-Butyl-3-(4-cyanophenyl)-4-ethyl-N-methyl-1H-pyrazole-5-carboxamide] as the compound, how does the pKi read?
Answer: 7.85

Question: How did the pKi turn out when `CCc1c(-c2ccc(C#N)cc2)nn(C(C)CC)c1C(=O)NCC(C)(C)O` (racemic) [Example 106, 1-sec-Butyl-3-(4-cyanophenyl)-4-ethyl-N-(2-hydroxy-2-methylpropyl)-1H-pyrazole-5-carboxamide] was run?
Answer: 7.62

Question: With `CCc1c(-c2ccc(C#N)cc2)nn(C(C)CC)c1C(=O)NCC(=O)NC` (racemic) [Example 109, 1-sec-Butyl-3-(4-cyanophenyl)-4-ethyl-N-[2-(methylamino)-2-oxoethyl]-1H-pyrazole-5-carboxamide] as the compound, how does the pKi read?
Answer: 6.70

Question: With `CCNC(=O)c1c(C)c(-c2ccc(C#N)cc2)nn1C1CCOC1` (single isomer, unassigned) [Example 76 Ent 1, 3-(4-Cyanophenyl)-N-ethyl-4-methyl-1-(tetrahydrofuran-3-yl)-1H-pyrazole-5-carboxamide] as the compound, how does the pKi read?
Answer: 7.65

Question: How did the pKi turn out when `CCNC(=O)c1c(C)c(-c2ccc(C#N)cc2)nn1C1CCOC1` (single isomer, unassigned) [Example 76 Ent 2, 3-(4-Cyanophenyl)-N-ethyl-4-methyl-1-(tetrahydrofuran-3-yl)-1H-pyrazole-5-carboxamide] was run?
Answer: 6.83
